Test results taken from US11396502B2, “Substituted heterocyclic derivatives as PI3K inhibitors” (Incyte Corporation, priority 2018, dated 2022).
Structures can show the parent of a compound that is named as a salt. Where two headings read alike, the source gives them in different places.

Tests used:
PI3Kδ (p110δ/p85α) = PI3Kδ (p110δ/p85α) (Homo sapiens (Human), UniProt O00329); experiment: PI3Kδ scintillation proximity assay; format: biochemical; conditions: recombinant human PI3Kδ 3.4 nM, 20 μM PIP2, 2 μM ATP, 120 min, room temperature
Chain of PI3Kδ (p110δ/p85α) (O00329 whole entry): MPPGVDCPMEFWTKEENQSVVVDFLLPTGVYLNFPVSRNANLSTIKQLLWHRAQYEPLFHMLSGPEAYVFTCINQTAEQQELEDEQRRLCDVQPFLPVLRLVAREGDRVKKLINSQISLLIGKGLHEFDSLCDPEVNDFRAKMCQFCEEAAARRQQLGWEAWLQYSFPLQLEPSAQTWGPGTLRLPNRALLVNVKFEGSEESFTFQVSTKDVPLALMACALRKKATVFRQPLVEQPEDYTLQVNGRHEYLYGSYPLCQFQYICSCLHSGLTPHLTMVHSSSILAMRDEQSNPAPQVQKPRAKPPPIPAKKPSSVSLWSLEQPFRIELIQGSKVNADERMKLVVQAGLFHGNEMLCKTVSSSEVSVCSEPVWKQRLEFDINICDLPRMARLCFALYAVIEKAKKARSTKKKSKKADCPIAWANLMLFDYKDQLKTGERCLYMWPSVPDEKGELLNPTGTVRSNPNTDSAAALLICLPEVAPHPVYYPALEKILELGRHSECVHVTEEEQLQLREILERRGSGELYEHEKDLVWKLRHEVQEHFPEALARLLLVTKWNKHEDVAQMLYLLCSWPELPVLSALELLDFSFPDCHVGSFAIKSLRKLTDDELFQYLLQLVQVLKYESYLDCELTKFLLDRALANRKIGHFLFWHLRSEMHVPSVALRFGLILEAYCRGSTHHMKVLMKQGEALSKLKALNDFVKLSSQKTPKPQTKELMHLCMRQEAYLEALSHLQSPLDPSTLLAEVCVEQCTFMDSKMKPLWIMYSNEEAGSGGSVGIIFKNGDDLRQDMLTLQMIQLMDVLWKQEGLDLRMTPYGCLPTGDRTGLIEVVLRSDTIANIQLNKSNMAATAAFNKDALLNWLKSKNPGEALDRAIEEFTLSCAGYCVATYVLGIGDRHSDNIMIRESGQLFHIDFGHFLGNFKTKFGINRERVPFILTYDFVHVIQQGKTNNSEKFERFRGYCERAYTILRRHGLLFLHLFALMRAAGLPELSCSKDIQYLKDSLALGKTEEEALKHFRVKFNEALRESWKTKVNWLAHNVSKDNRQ
Chain of PI3Kδ (p110δ/p85α) (P27986 whole entry partner): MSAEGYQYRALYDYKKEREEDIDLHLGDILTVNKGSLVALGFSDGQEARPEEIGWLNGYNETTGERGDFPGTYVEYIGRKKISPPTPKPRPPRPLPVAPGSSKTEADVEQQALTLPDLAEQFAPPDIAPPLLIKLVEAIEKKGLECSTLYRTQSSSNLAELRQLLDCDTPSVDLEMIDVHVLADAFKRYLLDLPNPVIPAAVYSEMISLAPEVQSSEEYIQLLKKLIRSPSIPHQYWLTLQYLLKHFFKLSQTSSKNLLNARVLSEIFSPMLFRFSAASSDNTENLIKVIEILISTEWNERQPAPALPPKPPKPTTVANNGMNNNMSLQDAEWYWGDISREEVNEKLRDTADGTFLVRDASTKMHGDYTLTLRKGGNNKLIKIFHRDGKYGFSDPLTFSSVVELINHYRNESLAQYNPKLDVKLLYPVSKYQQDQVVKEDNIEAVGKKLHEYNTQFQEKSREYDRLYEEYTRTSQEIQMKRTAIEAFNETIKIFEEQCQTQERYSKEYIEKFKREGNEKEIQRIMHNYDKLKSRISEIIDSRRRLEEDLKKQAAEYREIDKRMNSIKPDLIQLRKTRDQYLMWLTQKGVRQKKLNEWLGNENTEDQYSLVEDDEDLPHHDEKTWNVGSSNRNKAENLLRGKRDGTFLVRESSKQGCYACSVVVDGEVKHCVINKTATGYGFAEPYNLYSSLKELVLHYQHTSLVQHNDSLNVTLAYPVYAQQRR
Excerpt: Example C. PI3Kδ Scintillation Proximity Assay Materials: [γ-^33P]ATP (10 mCi/mL) and Wheat Germ Agglutinin (WGA) YSi SPA Scintillation Beads was purchased from Perkin Elmer (Waltham, Mass.). Lipid kinase substrate, D-myo-Phosphatidylinositol 4,5-bisphosphate (PtdIns(4,5)P2)D (+)-sn-1,2-di-O-octanoylglyceryl, 3-O-phospho linked (PIP2), CAS 204858-53-7, was purchased from Echelon Biosciences (Salt Lake City, Utah). PI3Kδ (p110δ/p85α) Recombinant Human Protein was purchased from Eurofins (St Charles, Mo.). ATP, MgCl2, DTT, EDTA, MOPS and CHAPS were purchased from Sigma Aldrich (St. Louis, Mo.). The kinase reaction was conducted in polystyrene 384-well Greiner Bio-one white plate from Thermo Fisher Scientific in a final volume of 25 μL. Inhibitors were first diluted serially in DMSO and added to the plate wells before the addition of other reaction components. The final concentration of DMSO in the assay was 2%. The PI3Kδ assay was carried out at room temperature in 20 mM MOPS, pH 6.7, 10 mM MgCl2, 5 mM DTT and CHAPS 0.03%. Reactions were initiated by the addition of ATP, the final reaction mixture consisted of 20 μM PIP2, 2 μM ATP, 0.5 μCi [γ-^33P] ATP, 3.4 nM PI3Kδ. Reactions were incubated for 120 min and terminated by the addition of 40 μL SPA beads suspended in quench buffer: 163 mM potassium phosphate pH 7.8, 20% glycerol, 25 mM EDTA. The final concentration of SPA beads is 1.0 mg/mL. After the plate sealing, plates were shaken overnight at room temperature and centrifuged at 1500 rpm for 10 min, the radioactivity of the product was determined by scintillation counting on Topcount (PerkinElmer). IC50 determination was performed by fitting the curve of percent of the solvent control activity versus the log of the inhibitor concentration using the GraphPad Prism 6.0 software.

PI3Kγ (p110γ) = PI3Kγ (p110γ) (Homo sapiens (Human), UniProt P48736); experiment: PI3K-γ scintillation proximity assay; format: biochemical; conditions: recombinant human PI3Kγ 13 nM, 20 μM PIP2, 2 μM ATP, 120 min, room temperature
Chain of PI3Kγ (p110γ) (P48736 whole entry): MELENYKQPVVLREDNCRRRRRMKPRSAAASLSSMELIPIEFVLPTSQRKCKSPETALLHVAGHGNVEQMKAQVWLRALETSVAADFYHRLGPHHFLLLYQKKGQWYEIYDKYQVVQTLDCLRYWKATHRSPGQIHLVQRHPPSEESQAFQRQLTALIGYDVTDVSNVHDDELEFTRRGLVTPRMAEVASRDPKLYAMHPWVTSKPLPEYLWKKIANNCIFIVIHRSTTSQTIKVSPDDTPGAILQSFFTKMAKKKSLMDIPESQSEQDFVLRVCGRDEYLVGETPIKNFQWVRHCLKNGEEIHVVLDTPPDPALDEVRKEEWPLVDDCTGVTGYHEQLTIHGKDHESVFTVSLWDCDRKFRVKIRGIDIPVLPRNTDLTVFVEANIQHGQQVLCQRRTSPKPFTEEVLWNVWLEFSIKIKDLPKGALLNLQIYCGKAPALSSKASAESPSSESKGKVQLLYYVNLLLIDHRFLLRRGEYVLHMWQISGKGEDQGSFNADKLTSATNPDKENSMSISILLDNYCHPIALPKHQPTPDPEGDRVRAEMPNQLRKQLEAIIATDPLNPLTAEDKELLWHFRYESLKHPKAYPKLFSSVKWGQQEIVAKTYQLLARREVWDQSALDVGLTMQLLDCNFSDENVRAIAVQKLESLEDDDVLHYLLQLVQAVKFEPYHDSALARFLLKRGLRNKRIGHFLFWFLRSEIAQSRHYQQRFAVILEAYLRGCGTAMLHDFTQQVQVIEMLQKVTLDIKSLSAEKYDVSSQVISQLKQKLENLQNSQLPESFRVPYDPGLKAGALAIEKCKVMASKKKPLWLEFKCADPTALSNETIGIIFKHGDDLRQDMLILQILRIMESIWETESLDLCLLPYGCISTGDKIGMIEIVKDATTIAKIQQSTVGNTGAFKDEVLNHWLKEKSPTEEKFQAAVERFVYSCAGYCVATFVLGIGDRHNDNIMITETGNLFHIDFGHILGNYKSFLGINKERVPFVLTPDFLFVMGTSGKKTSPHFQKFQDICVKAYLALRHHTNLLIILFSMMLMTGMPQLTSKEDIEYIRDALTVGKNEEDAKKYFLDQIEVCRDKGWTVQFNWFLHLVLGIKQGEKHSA
Excerpt: Example B. PI3K-γ Scintillation Proximity Assay Materials: [γ-^33P]ATP (10 mCi/mL) and Wheat Germ Agglutinin (WGA) YSi SPA Scintillation Beads was purchased from Perkin Elmer (Waltham, Mass.). Lipid kinase substrate, D-myo-Phosphatidylinositol 4,5-bisphosphate (PtdIns(4,5)P2)D (+)-sn-1,2-di-O-octanoylglyceryl, 3-O-phospho linked (PIP2), CAS 204858-53-7, was purchased from Echelon Biosciences (Salt Lake City, Utah). PI3Kγ (p110γ) Recombinant Human Protein was purchased from Life technology (Grand Island, N.Y.). ATP, MgCl2, DTT, EDTA, MOPS and CHAPS were purchased from Sigma Aldrich (St. Louis, Mo.). The kinase reaction was conducted in polystyrene 384-well Greiner Bio-one white plate from Thermo Fisher Scientific in a final volume of 25 μL. Inhibitors were first diluted serially in DMSO and added to the plate wells before the addition of other reaction components. The final concentration of DMSO in the assay was 2%. The PI3Kγ assay was carried out at room temperature in 20 mM MOPS, pH 6.7, 10 mM MgCl2, 5 mM DTT and CHAPS 0.03%. Reactions were initiated by the addition of ATP, the final reaction mixture consisted of 20 μM PIP2, 2 μM ATP, 0.5 μCi [γ-^33P] ATP, 13 nM PI3Kγ. Reactions were incubated for 120 min and terminated by the addition of 40 μL SPA beads suspended in quench buffer: 163 mM potassium phosphate pH 7.8, 20% glycerol, 25 mM EDTA. The final concentration of SPA beads is 1.0 mg/mL. After the plate sealing, plates were shaken overnight at room temperature and centrifuged at 1500 rpm for 10 min, the radioactivity of the product was determined by scintillation counting on Topcount (Perkin-Elmer). IC50 determination was performed by fitting the curve of percent of the solvent control activity versus the log of the inhibitor concentration using the GraphPad Prism 6.0 software.

[1] = tested on: Phosphorylated Ribosomal Protein S6 (RPS6) in THP-1 cells; experiment: THP-1 RPS6 ELISA assay; format: cell-based, Human
Procedure: Example A. THP-1 RPS6 ELISA Assay
To measure the Phosphorylated Ribosomal Protein S6 (RPS6) in cell lysates, THP-1 cells (Human Acute Monocytic Leukemia) are purchased from ATCC (Manassas, Va.) and maintained in RPMI with 10% FBS (Gibco/Life Technologies, Carlsbad, Calif.). For the assay, THP-1 cells are serum starved overnight in RPMI, then plated in RPMI (2×10^5 cells/well in 90 μL) into 96-well flat-bottom tissue culture treated plates (Corning, Corning, N.Y.), in the presence or absence of a concentration range of test compounds. Covered plates are incubated for 2 hours at 37° C., 5% CO2 then treated with or without 10 nM MCP-1 (MYBioSource, San Diego, Calif.) for 15 minutes at 37° C., 5% CO2. Plates are centrifuged at 1600 RPM and supernatants are removed. Cells are lysed in Lysis Buffer (Cell Signaling, Danvers, Mass.) with Protease Inhibitor (Calbiochem/EMD, Germany), PMSF (Sigma, St Louis Mo.), HALTS (Thermo Fisher, Rockford, Ill.) for 30 min on wet ice. Cell lysates are frozen at −80° C. before testing. The lysates are tested in the Human/Mouse/Rat Phospho-RPS6 ELISA (R&D Systems, Inc. Minn, Minn.). The plate is measured using a microplate reader (SpectraMax M5—Molecular Devices, LLC Sunnyvale, Calif.) set to 450 nm with a wavelength correction of 540. IC50 determination is performed by fitting the curve of inhibitor percent inhibition versus the log of the inhibitor concentration using the GraphPad Prism 5.0 software.

[2] = Homo sapiens, THP-1, serum starved THP-1 cells, 2 hours compound, 10 nM MCP-1 for 15 minutes, Phospho-RPS6 ELISA, read-out: PI3Kγ_THP1_RPS6_ELISA IC50
[3] = serum starved THP-1 cells, 2 hours compound, 10 nM MCP-1 for 15 minutes, Phospho-RPS6 ELISA, read-out: PI3Kγ_THP1_RPS6_ELISA IC50

SMILES | IC50 (PI3Kδ (p110δ/p85α)) [nM] | IC50 (PI3Kγ (p110γ)) [nM] | IC50 [1, 2] [nM] | IC50 ([1]; Homo sapiens, THP-1, read-out: PI3Kγ_THP1_RPS6_ELISA IC50 (nM)) [nM] | IC50 [1, 3] [nM]
Cc1[nH]c(-c2cc(-c3cc4c(c(S(C)(=O)=O)c3)C(=O)N([C@@H](C)C3CC3)C4)ccn2)nc1C(=O)NC1CC(O)C1 (mixture of isomers) [Example 7f, (S)-2-(4-(2-(1-Cyclopropylethyl)-7-(methylsulfonyl)-1-oxoisoindolin-5-yl)pyridin-2-yl)-N-(3-hydroxycyclobutyl)-4-methyl-1H-imidazole-5-carboxamide, trifluoroacetate salt (mixture of two diastereomers)] | 100 to 500 | < 100 | > 1000 |  | 
Cc1[nH]c(-c2cc(-c3cc4c(c(S(C)(=O)=O)c3)C(=O)N([C@@H](C)C3CC3)C4)ccn2)nc1C(=O)N(C)C1CCC1 [Example 7u, (S)-N-Cyclobutyl-2-(4-(2-(1-cyclopropylethyl)-7-(methylsulfonyl)-1-oxoisoindolin-5-yl)pyridin-2-yl)-N,4-dimethyl-1H-imidazole-5-carboxamide, trifluoroacetate salt] | 500 to 2000 | < 100 | 100 to 500 |  | 
CCNC(=O)c1nc(-c2cc(-c3cc4c(c(S(C)(=O)=O)c3)C(=O)N([C@@H](C)C3CC3)C4)ccn2)[nH]c1C [Example 7r, (S)-2-(4-(2-(1-Cyclopropylethyl)-7-(methylsulfonyl)-1-oxoisoindolin-5-yl)pyridin-2-yl)-N-ethyl-4-methyl-1H-imidazole-5-carboxamide, trifluoroacetate salt] | 500 to 2000 | < 100 | 100 to 500 |  | 
Cc1nnc(-c2cc(-c3cc4c(c(S(C)(=O)=O)c3)C(=O)N([C@@H](C)C3CC3)C4)ccn2)[nH]1 [Example 12, (S)-2-(1-Cyclopropylethyl)-5-(2-(5-methyl-4H-1,2,4-triazol-3-yl)pyridin-4-yl)-7-(methylsulfonyl)isoindolin-1-one] | > 2000 | < 100 | > 1000 |  | 
Cc1[nH]c(-c2cc(-c3cc4c(c(S(C)(=O)=O)c3)C(=O)N([C@@H](C)C3CC3)C4)ccn2)nc1C(=O)NC1CN(C)C1 [Example 7m, (S)-2-(4-(2-(1-Cyclopropylethyl)-7-(methylsulfonyl)-1-oxoisoindolin-5-yl)pyridin-2-yl)-4-methyl-N-(1-methylazetidin-3-yl)-1H-imidazole-5-carboxamide, trifluoroacetate salt] | 500 to 2000 | < 100 | 500 to 1000 |  | 
Cc1[nH]c(-c2cc(-c3cc4c(c(S(C)(=O)=O)c3)C(=O)N([C@@H](C)C3CC3)C4)ccn2)nc1C(=O)N1CCC1 [Example 7j, (S)-5-(2-(5-(Azetidine-1-carbonyl)-4-methyl-1H-imidazol-2-yl)pyridin-4-yl)-2-(1-cyclopropylethyl)-7-(methylsulfonyl)isoindolin-1-one, trifluoroacetate salt] | 100 to 500 | < 100 |  | 100 to 500 | 
Cc1nc(-c2cc(-c3cc4c(c(S(C)(=O)=O)c3)C(=O)N([C@@H](C)C3CC3)C4)ccn2)[nH]c1C [Example 2, (S)-2-(1-Cyclopropylethyl)-5-(2-(4,5-dimethyl-1H-imidazol-2-yl)pyridin-4-yl)-7-(methylsulfonyl)isoindolin-1-one Trifluoroacetate Salt] | 100 to 500 | < 100 | 500 to 1000 |  | 
Cc1nc(-c2cc(-c3cc(Cl)c4c(c3)CN([C@@H](C)C3CC3)C4=O)ccn2)[nH]c1C [Example 1, (S)-7-Chloro-2-(1-cyclopropylethyl)-5-(2-(4,5-dimethyl-1H-imidazol-2-yl)pyridin-4-yl)isoindolin-1-one] | 100 to 500 | < 100 | 500 to 1000 |  | 
Cc1nnc(-c2cc(-c3ccc4c(c3)CN([C@@H](C)C3CC3)C4=O)ccn2)[nH]1 [Example 13, (S)-2-(1-Cyclopropylethyl)-5-(2-(5-methyl-4H-1,2,4-triazol-3-yl)pyridin-4-yl)isoindolin-1-one] | > 2000 | < 100 |  |  | 
Cc1nc(-c2cc(-c3cc4c(c(S(C)(=N)=O)c3)C(=O)N([C@@H](C)C3CC3)C4)ccn2)[nH]c1C (stereo partly drawn) [Example 21, 2-((S)-1-Cyclopropylethyl)-5-(2-(4,5-dimethyl-1H-imidazol-2-yl)pyridin-4-yl)-7-(S-methylsulfonimidoyl)isoindolin-1-one] |  |  |  |  | 500 to 1000
Cc1cc(-c2cc(-c3ccc4c(c3)CN([C@@H](C)C3CC3)C4=O)cnn2)[nH]n1 [Example 11, (S)-2-(1-Cyclopropylethyl)-5-(6-(3-methyl-1H-pyrazol-5-yl)pyridazin-4-yl)isoindolin-1-one Trifluoroacetate Salt] | > 2000 | 500 to 2000 |  |  | 
CN=S(C)(=O)c1cc(-c2ccnc(-c3nc(C)c(C)[nH]3)c2)cc2c1C(=O)N([C@@H](C)C1CC1)C2 (stereo partly drawn) [Example 24, 2-((S)-1-Cyclopropylethyl)-5-(2-(4,5-dimethyl-1H-imidazol-2-yl)pyridin-4-yl)-7-(N,S-dimethylsulfonimidoyl)isoindolin-1-one] |  |  |  |  | 100 to 500
Cc1nc(-c2cc(-c3cc4c(c(C(O)CO)c3)C(=O)N([C@@H](C)C3CC3)C4)cnn2)[nH]c1C (stereo partly drawn) [Example 19, 2-((S)-1-Cyclopropylethyl)-7-(1,2-dihydroxyethyl)-5-(6-(4,5-dimethyl-1H-imidazol-2-yl)pyridazin-4-yl)isoindolin-1-one, Trifluoroacetate Salt] | > 2000 | < 100 |  |  | 
Cc1nc(-c2cc(-c3cc4c(c(S(C)(=O)=O)c3)C(=O)N([C@@H](C)C3CC3)C4)cnn2)[nH]c1C [Example 8, (S)-2-(1-Cyclopropylethyl)-5-(6-(4,5-dimethyl-1H-imidazol-2-yl)pyridazin-4-yl)-7-(methylsulfonyl)isoindolin-1-one Trifluoroacetate Salt] | > 2000 | < 100 |  |  | 
